Reference: patent US9474744B2, “Beta-lactam compounds for treating diabetes” (STEM CELL MEDICINE LTD., priority 2011, dated 2016)
“Also recorded” adds a separate entry of the source.

Columns and labels:
[1] = system: encephalitogenic BP10 line; assay: Adoptive EAE: BP10 T-cell line stimulated in vitro with test substance, then injected into naive rats; assay type: in vivo, rat
Protocol: Antigen-specific T-cell lines were established from lymph node cells that had been stimulated with myelin basic protein (MBP; 10 μg/ml) for 3 days in stimulation medium as described below. Following stimulation, the T-cell blasts were isolated on LYMPHOPREP™ (Nycomed Pharma, Oslo, Norway) and seeded in propagation medium. Propagation medium was identical to stimulation medium without autologous serum, but supplemented with fetal calf serum 10% and T-cell growth factors from the supernatant of Con A stimulated spleen cells 10% (Mor et al. (1990) J Clin Invest, 85, 1594-1598). Animals were injected intra-peritoneally with 107 MBP-stimulated T cells, following 6-8 cycles of in vitro stimulations. It is known that MBP-reactive lines undergo a reduction in pathogenicity after 6 or more in vitro stimulations. In some experiments the BP10 line was stimulated with phorbol myristate acetate (PMA; 50 ng/ml) and ionomycin (500 ng/ml) for 3 days in stimulation medium, without antigen-presenting cells.
Active EAE was induced by subcutaneous injection of 25 μg guinea-pig MBP (GpMBP) in complete Freund's adjuvant (CFA). […] Adoptive EAE was transferred by intra-peritoneal injection of guinea-pig MBP-activated cells of the BP10 line as described in Mor et al. (1993) J Clin Invest, 92, 2199-2206. […] Clinical scoring was: +1, paralysis of tail; +1.5, paresis of posterior paws and ataxia; +2, paraplegia; +3, paralysis extending to thoracic spine; +4, a moribund state.
Treatment with cefuroxime in vivo could affect many different host agents involved in EAE or AA as well as influencing the rats' bacterial flora. To test whether the antibiotic might directly modify the behavior of effector T cells, an encephalitogenic T-cell line was stimulated in the presence or absence of cefuroxime in vitro. The weakly encephalitogenic BP10 line was used, and was stimulated for 3 days with MBP in the presence or absence of cefuroxime (50 μg/ml). The activated T cells were then washed to remove the antibiotic, the T cells were injected intra-peritoneally into naïve recipient rats (10^7 per rat), and EAE was scored. The BP10 line at later stimulations was used, when its pathogenic potential is reduced, allowing to detect both suppression and enhancement of disease. […] To rule out antigen presenting cells (APC) as the target of the beta-lactam antibiotic, the encephalitogenic BP10 line was stimulated without APC using PMA (50 ng/ml) and Ionomycin (500 ng/ml) in the presence or absence of cefuroxime.
Additional beta-lactam antibiotics were tested for their effect on the adoptive transfer of EAE.
A control group was injected with the untreated line.

CD4+ human T cells = assay: Human Autoimmune and Inflammatory Response Gene Array, anti-CD3-stimulated T cells with or without antibiotic; assay type: cell-based; conditions: 120 min anti-CD3; for % decrease by Cef: cefuroxime 50 μg/ml, ±SD, relative to control
Protocol: T cells were purified from the peripheral bloods of healthy human donors (Blood Bank, Sheba Medical center). The whole blood was incubated (20 min, 22° C.) with RosetteSep™ human T cell enrichment mixture (StemCell Technologies, Vancouver, Canada). The remaining unsedimented cells were then loaded onto lymphocyte separation medium (ICN Biomedicals, Irvine, Calif.), isolated by density centrifugation, and washed with PBS. […] In a second round of purification, CD3^+ T cells were labeled for selection with a magnetically coupled mAb against CD4 (Miltenyi Biotec, Auburn, Calif.).
Human CD4 T cells were isolated as described, and incubated in 24 well plates (Nunc), 4×10^6 cells/ml with plate bound anti-human CD3 (OKT3) at 2 μg/ml. The stimulation was performed in RPMI medium supplemented with 0.1% BSA. […] RNA was extracted from samples and used to prepare probes for gene array in accord with the manufacturer's instructions (SuperArray Bioscience, Frederick, Md.). Adequate labeling of the probes was tested before hybridization. Three healthy donors were tested in stimulation with cefuroxime. The membranes were analyzed online with the Image Data Acquisition and Expression Analysis (SuperArray Bioscience).
The Human Autoimmune and Inflammatory Response Gene Array (SuperArray Bioscience corporation, Frederick, Md., USA) was used for analysis of gene expression by the T cells. This array contains 367 genes including cytokines, chemokines and their receptors, transcription factors and signaling proteins. […] Analysis of the results was performed using the GEArray analysis program. […] To verify the results detected by the gene array study, a panel of six genes was designed and tested by real-time PCR: CCR4, ACVR2, JAK1, STAT4, TLR2 and NFKBIE. The cDNA that was used was prepared from the same RNA used for the gene array experiment.

[2] = system: Adjuvant Arthritis (AA) in Lewis rats; assay: Adjuvant arthritis (AA) in rats, IP antibiotic treatment; assay type: in vivo, rat; conditions: IP 5 mg (25 mg/kg) once every 2 or 3 days from day 12; versus non-injected control

With `CO/N=C(\C(=O)N[C@@H]1C(=O)N2C(C(=O)O)=C(COC(N)=O)CS[C@H]12)c1ccco1` [cefuroxime] the “severity of adoptive EAE in recipient rats” value (“severity of adoptive EAE” below) ([1]; BP10 line stimulated 3 days with MBP in presence of 50 μg/ml antibiotic, 10^7 cells per rat) was “markedly enhanced the manifestations of EAE”, the “severity of adoptive EAE” value ([1]; BP10 line stimulated 3 days with MBP in presence of 50 μg/ml antibiotic, 10^7 cells per rat, listed as Cefuroxime) was “enhances the pathogenicity of the BP10 line” and the “severity of adoptive EAE” value ([1]; BP10 line stimulated without APC using PMA (50 ng/ml) and Ionomycin (500 ng/ml)) was “significantly more severe”. For the same compound, the “severity of adoptive EAE” value ([1]; dose-response, BP10 line stimulated with 5 μg/ml) was “ineffective”, the “severity of adoptive EAE” value ([1]; dose-response, BP10 line stimulated with 25 μg/ml) was “enhancing effect similar to that of 50 μg/ml” and the “number of genes down-regulated” value (CD4+ human T cells; array of 367 genes, 50 μg/ml) was “Fifty-seven”. For the same compound, the “% decrease by Cef” value (CD4+ human T cells; gene ACTB) was 49 ± 11%, the “% decrease by Cef” value (CD4+ human T cells; gene ACVR1) was 42 ± 0.7% and the “% decrease by Cef” value (CD4+ human T cells; gene ACVR2) was 60 ± 14.8%. The “% decrease by Cef” value (CD4+ human T cells; gene CCL5) was 21 ± 5.6%, the “% decrease by Cef” value (CD4+ human T cells; gene CCL11) was 18 ± 6.6% and the “% decrease by Cef” value (CD4+ human T cells; gene CCR4) was 39 ± 2%. For the same compound, the “% decrease by Cef” value (CD4+ human T cells; gene CCR6) was 53 ± 5.6%, the “% decrease by Cef” value (CD4+ human T cells; gene CCR7) was 38 ± 8.1% and the “% decrease by Cef” value (CD4+ human T cells; gene CD28) was 51 ± 2.1%. For the same compound, the “% decrease by Cef” value (CD4+ human T cells; gene CD40LG) was 33 ± 7.1%, the “% decrease by Cef” value (CD4+ human T cells; gene CREB1) was 19 ± 4.9% and the “% decrease by Cef” value (CD4+ human T cells; gene CREBBP) was 40 ± 9.9%. The “% decrease by Cef” value (CD4+ human T cells; gene CXCL10) was 39 ± 3%, the “% decrease by Cef” value (CD4+ human T cells; gene EGR3) was 38 ± 2.8% and the “% decrease by Cef” value (CD4+ human T cells; gene GFI1) was 45 ± 14%. For the same compound, the “% decrease by Cef” value (CD4+ human T cells; gene HRAS) was 30 ± 9.8%, the “% decrease by Cef” value (CD4+ human T cells; gene IL1B) was 54 ± 7.0% and the “% decrease by Cef” value (CD4+ human T cells; gene IL2RB) was 50 ± 9.9%. For the same compound, the “% decrease by Cef” value (CD4+ human T cells; gene IL2RG) was 57 ± 9.8%, the “% decrease by Cef” value (CD4+ human T cells; gene IL9R) was 27.5 ± 3% and the “% decrease by Cef” value (CD4+ human T cells; gene IL16) was 50 ± 7.8%. The “% decrease by Cef” value (CD4+ human T cells; gene IRAK1) was 44 ± 2.1%, the “% decrease by Cef” value (CD4+ human T cells; gene JAK1) was 53 ± 13.4% and the “% decrease by Cef” value (CD4+ human T cells; gene JUN) was 49 ± 2.2%. The “% decrease by Cef” value (CD4+ human T cells; gene LTA) was 17 ± 10%, the “% decrease by Cef” value (CD4+ human T cells; gene MAP2K4) was 52 ± 14.1% and the “% decrease by Cef” value (CD4+ human T cells; gene MAP3K1) was 53 ± 12%. The “% decrease by Cef” value (CD4+ human T cells; gene MAP3K2) was 36 ± 12%, the “% decrease by Cef” value (CD4+ human T cells; gene MAP3K7) was 46 ± 9.9% and the “% decrease by Cef” value (CD4+ human T cells; gene MAPK9) was 42 ± 10.9%. The “% decrease by Cef” value (CD4+ human T cells; gene NFKB1) was 43 ± 3.5%, the “% decrease by Cef” value (CD4+ human T cells; gene NFKB2) was 53 ± 10.6% and the “% decrease by Cef” value (CD4+ human T cells; gene NFKBIE) was 63 ± 11%. For the same compound, the “% decrease by Cef” value (CD4+ human T cells; gene NFKBIL1) was 54 ± 12.5%, the “% decrease by Cef” value (CD4+ human T cells; gene PAK1) was 40 ± 2.4% and the “% decrease by Cef” value (CD4+ human T cells; gene PIN1) was 45 ± 12.1%. For the same compound, the “% decrease by Cef” value (CD4+ human T cells; gene RANBP5) was 33 ± 3.5%, the “% decrease by Cef” value (CD4+ human T cells; gene REL) was 45 ± 1.9% and the “% decrease by Cef” value (CD4+ human T cells; gene RFX5) was 36 ± 4.2%. The “% decrease by Cef” value (CD4+ human T cells; gene RFXAP) was 27 ± 12%, the “% decrease by Cef” value (CD4+ human T cells; gene SDF2) was 28 ± 12% and the “% decrease by Cef” value (CD4+ human T cells; gene SELL) was 46 ± 7.0%. For the same compound, the “% decrease by Cef” value (CD4+ human T cells; gene SMAD4) was 47 ± 7.0%, the “% decrease by Cef” value (CD4+ human T cells; gene SMAD7) was 47 ± 4.2% and the “% decrease by Cef” value (CD4+ human T cells; gene SP3) was 39 ± 9.9%. The “% decrease by Cef” value (CD4+ human T cells; gene SRF) was 38 ± 1.9%, the “% decrease by Cef” value (CD4+ human T cells; gene STAT1) was 32 ± 11% and the “% decrease by Cef” value (CD4+ human T cells; gene STAT4) was 47 ± 9.3%. For the same compound, the “% decrease by Cef” value (CD4+ human T cells; gene STAT6) was 47 ± 7.9%, the “% decrease by Cef” value (CD4+ human T cells; gene TGFBR3) was 44 ± 3.5% and the “% decrease by Cef” value (CD4+ human T cells; gene TGIF) was 43 ± 3.5%. The “% decrease by Cef” value (CD4+ human T cells; gene TLR2) was 52 ± 14%, the “% decrease by Cef” value (CD4+ human T cells; gene TNFRSF11) was 43 ± 2% and the “% decrease by Cef” value (CD4+ human T cells; gene TNFα) was 29 ± 8.5%. For the same compound, the “% decrease by Cef” value (CD4+ human T cells; gene TRAF5) was 43 ± 2.2%, the “% decrease by Cef” value (CD4+ human T cells; gene TRAF6) was 43 ± 3.5% and the “% decrease by Cef” value (CD4+ human T cells; gene YY1) was 23 ± 9.1%. The arthritis scores [2] was “significantly more severe arthritis scores; also recorded: Exacerbation of adjuvant-induced arthritis”.
